Each block holds one compound with its values, some of them ahead of it.
What was measured:
[1] = molecular target: T1, CYP3A4 (Homo sapiens, UniProt P08684); experiment: In-Vitro Cytochrome P450 (CYP450) Inhibition Assay (Vivid CYP450); format: in vitro ADME; conditions: CYP3A4 enzyme complex (Vivid CYP450, Invitrogen), 6 μM test concentration
T1 construct: purchased Invitrogen
Experimental: We evaluated interaction of drug candidates with cytochrome P450 enzymes which are a major determinant of drug clearance via oxidative metabolism using a high throughput compatible, fluorescence based CYP450 screening assay (Vivid® CYP450, Invitrogen) according to manufacturer's directions.
In brief, test compounds at four different concentrations (μM—6.0, 2.0, 0.7, 0.2), a positive control (Ketoconazole) and a solvent control were incubated at room temperature in unique wells of a 96-well microtiter plate with CYP3A4 enzyme complex for 20 minutes. A pre-read fluorescence (Ex−485 nm/Em−530 nm) was measured at the start of the incubation using a Tecan Safire^2 microplate reader-monochromator to determine background fluorescence. At the end of the incubation period, enzyme substrate and co-enzyme were added and the reaction was kinetically monitored for 1 hour by measuring fluorescence every minute. Effect of test compounds on inhibition of CYP3A4 metabolism of provided substrate was determined by calculating the ratio of the effective reaction rate in presence of test compound to that in the absence of inhibitor.

[2] = molecular target: T2, NaV1.7 (Homo sapiens, UniProt Q15858); experiment: Patchliner Electrophysiological In-Vitro Assay (NaV1.7); format: cell-based; conditions: Patchliner patch clamp, HEK293, holding at V1/2
T2 construct: expressed in transfected cells
Experimental: In vitro assays were performed in recombinant cell line that stably express a heterotrimeric protein of interest from an introduced nucleic acid encoding the alpha subunit (hNav1.7, SCN9A), the beta subunit (SCNB1) and the beta subunit (SCNB2). The cell line was engineered using Human Embryonic Kidney 293 cells as host background. Additional cell lines stably expressing recombinant Nav1.7 or Nav1.5 alpha subunit alone or in combination with various beta subunits can also be used in in-vitro assays.
The recording of sodium current from stable HEK293 cell lines expressing NaV1.7 or NaV1.5 was done on a Patchliner® instrument, Nanion Technologies. The Patchliner® is a fully automated bench-top patch clamp platform and can record simultaneously from up to eight single cells with GΩ seals.
For patch-clamp experiments, cells were grown under standard culturing conditions in Dulbecco's Modified Eagles medium supplemented with 10% fetal bovine serum, glutamine and HEPES. Cells were harvested and kept in suspension for up to 4 hours with no significant change in quality or ability to patch. Whole cell patch clamp recordings were conducted according to Nanion's standard procedure for the Patchliner®. Experiments were conducted at room temperature.
Voltage protocols were designed to establish: 1) peak current amplitude (Imax), 2) test potential (Vmax) and 3) half-inactivation potential (V1/2) for each of the eight individual cells. To determine V1/2, a standard steady-state inactivation protocol was executed using a series of fifteen 500 ms depolarizing pre-pulses in 10 mV increments (starting at −130 mV) and immediately followed by a 10 ms test pulse to Vmax. To estimate test compound affinity to the inactivated state of sodium channel (Ki), the holding potential for each cell was set automatically to the V1/2 calculated from a steady-state inactivation data. The current was activated with the following voltage protocol: holding at V1/2 for 2-5 seconds, return to the −120 mV for 5-10 ms to relieve fast inactivation, stepping to test potential (Vmax) for 10-20 ms. This voltage protocol was repeated every 10 seconds to establish the baseline with 2-3 buffer additions followed by the test compound addition. The dose-dependent inhibition was analyzed using Nanion's Data Analysis Package.

[3] = molecular target: T3, hNaV1.7 (Homo sapiens, UniProt Q15858); experiment: FDSS Membrane Potential In-Vitro Assay; format: cell-based; conditions: stimulation with veratridine and scorpion venom, read-out: NaV1.7 IC50
T3 construct: expressed in transfected cells
T3 sequence (Q15858 whole entry): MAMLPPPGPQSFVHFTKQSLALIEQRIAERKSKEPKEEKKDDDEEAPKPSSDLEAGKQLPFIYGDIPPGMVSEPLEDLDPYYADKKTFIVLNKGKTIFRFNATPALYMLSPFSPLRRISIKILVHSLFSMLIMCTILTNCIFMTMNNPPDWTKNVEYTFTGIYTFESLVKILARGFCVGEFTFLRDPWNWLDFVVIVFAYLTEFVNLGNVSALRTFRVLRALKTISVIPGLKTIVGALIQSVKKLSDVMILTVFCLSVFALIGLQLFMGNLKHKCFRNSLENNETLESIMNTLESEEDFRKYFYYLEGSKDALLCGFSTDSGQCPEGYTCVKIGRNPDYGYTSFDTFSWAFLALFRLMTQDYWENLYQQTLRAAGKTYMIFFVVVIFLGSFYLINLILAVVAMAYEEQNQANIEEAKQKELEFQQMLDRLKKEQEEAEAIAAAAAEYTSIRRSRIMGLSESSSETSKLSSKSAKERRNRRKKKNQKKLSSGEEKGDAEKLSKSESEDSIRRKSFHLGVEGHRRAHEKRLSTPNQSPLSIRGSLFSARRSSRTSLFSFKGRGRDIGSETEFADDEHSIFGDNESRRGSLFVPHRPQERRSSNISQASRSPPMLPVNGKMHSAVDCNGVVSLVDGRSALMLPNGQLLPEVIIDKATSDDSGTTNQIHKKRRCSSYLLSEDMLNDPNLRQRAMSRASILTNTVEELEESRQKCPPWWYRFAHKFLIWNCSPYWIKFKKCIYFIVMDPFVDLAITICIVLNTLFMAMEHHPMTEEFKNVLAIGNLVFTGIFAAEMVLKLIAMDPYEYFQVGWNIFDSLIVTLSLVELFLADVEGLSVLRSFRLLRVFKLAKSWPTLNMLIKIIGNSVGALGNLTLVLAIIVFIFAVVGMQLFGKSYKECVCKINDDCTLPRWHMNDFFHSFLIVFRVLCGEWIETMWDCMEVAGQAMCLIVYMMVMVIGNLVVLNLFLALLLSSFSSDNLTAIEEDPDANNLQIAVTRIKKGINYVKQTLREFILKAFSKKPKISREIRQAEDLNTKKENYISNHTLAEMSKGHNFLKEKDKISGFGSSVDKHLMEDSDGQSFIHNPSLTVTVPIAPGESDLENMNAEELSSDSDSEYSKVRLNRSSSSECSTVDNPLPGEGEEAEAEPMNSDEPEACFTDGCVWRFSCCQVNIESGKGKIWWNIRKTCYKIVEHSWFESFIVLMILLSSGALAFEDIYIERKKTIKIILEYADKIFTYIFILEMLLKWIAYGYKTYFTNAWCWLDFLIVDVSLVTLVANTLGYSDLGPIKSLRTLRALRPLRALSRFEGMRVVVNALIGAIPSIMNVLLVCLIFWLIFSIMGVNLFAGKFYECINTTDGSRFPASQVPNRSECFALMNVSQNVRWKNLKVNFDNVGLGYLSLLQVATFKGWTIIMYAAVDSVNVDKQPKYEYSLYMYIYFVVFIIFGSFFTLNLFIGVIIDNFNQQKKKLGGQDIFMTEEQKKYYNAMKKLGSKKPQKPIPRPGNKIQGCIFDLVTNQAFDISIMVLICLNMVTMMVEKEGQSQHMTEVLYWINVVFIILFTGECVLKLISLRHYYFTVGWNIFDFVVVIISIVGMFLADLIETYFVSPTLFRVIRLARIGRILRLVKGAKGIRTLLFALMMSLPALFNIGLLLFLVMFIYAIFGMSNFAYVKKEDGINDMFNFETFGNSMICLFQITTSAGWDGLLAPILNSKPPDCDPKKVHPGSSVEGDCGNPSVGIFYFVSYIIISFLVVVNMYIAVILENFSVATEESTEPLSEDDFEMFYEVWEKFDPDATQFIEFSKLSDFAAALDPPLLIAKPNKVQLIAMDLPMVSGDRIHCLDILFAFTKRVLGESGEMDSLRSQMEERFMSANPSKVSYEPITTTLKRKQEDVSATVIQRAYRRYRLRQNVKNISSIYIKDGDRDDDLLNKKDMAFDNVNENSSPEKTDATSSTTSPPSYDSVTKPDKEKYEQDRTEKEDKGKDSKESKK
T3 sequence (Q07699 19-218 partner): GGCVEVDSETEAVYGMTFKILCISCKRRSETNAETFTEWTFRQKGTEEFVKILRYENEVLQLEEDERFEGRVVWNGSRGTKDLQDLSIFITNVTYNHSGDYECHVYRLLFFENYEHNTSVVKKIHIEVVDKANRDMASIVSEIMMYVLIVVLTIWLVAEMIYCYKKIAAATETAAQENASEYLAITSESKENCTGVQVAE
T3 sequence (O60939 30-215 partner): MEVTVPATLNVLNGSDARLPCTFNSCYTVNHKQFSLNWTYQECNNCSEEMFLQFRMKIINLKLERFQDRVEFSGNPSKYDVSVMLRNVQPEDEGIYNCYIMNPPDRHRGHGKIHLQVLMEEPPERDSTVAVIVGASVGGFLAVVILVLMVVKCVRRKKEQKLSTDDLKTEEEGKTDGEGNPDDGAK

T2 sequence (Q15858 whole entry): as the sequence (Q15858 whole entry) above
T2 sequence (Q07699 19-218 partner): as the sequence (Q07699 19-218 partner) above
T2 sequence (O60939 30-215 partner): as the sequence (O60939 30-215 partner) above
T1 sequence (P08684 2-503 limits assumed): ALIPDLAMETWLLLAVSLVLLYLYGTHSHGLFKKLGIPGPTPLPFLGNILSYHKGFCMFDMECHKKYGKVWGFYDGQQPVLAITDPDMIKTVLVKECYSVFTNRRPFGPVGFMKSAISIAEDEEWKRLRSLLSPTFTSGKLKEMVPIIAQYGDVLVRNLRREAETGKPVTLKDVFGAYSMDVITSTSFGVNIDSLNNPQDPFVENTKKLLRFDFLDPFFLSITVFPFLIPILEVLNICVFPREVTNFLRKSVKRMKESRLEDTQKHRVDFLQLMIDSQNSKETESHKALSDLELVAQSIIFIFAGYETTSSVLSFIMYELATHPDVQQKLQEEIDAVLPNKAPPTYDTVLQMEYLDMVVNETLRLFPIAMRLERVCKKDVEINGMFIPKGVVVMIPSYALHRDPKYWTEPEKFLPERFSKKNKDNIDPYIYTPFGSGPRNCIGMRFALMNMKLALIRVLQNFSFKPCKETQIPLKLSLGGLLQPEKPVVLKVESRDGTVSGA

SMILES: CC(NC(=O)c1cc(-c2cc(Cl)ccc2Oc2cc(F)c(S(=O)(=O)Nc3ncns3)cc2Cl)ccn1)C(=O)O (racemic) [Compound 5, 2-(4-(2-(4-(N-(1,2,4-thiadiazol-5-yl)sulfamoyl)-2-chloro-5-fluorophenoxy)-5-chlorophenyl)picolinamido)propanoic acid]
- inhibition at 1 hour, 6 µM [1]: 25 to 50%
- IC50 [2]: < 100 nM
- IC50 [3]: 130 to 1000 nM

SMILES: O=C(O)CCCCNC(=O)c1cc(-c2cc(Cl)ccc2Oc2cc(F)c(S(=O)(=O)Nc3ncns3)cc2Cl)ccn1 [Compound 3, 5-(4-(2-(4-(N-(1,2,4-thiadiazol-5-yl)sulfamoyl)-2-chloro-5-fluorophenoxy)-5-chlorophenyl)picolinamido)pentanoic acid]
- inhibition at 1 hour, 6 µM [1]: 50 to 100%
- IC50 [3]: < 130 nM

SMILES: O=C(O)CCCNC(=O)c1cc(-c2cc(Cl)ccc2Oc2cc(F)c(S(=O)(=O)Nc3ncns3)cc2Cl)ccn1 [Compound 4, 4-(4-(2-(4-(N-(1,2,4-thiadiazol-5-yl)sulfamoyl)-2-chloro-5-fluorophenoxy)-5-chlorophenyl)picolinamido)butanoic acid]
- inhibition at 1 hour, 6 µM [1]: 50 to 100%
- IC50 [3]: 130 to 1000 nM

SMILES: C[C@@H](NC(=O)c1cc(-c2cc(Cl)ccc2Oc2cc(F)c(S(=O)(=O)Nc3ncns3)cc2Cl)ccn1)C(=O)O [Compound 6, (R)-2-(4-(2-(4-(N-(1,2,4-thiadiazol-5-yl)sulfamoyl)-2-chloro-5-fluorophenoxy)-5-chlorophenyl)picolinamido)propanoic acid]
- inhibition at 1 hour, 6 µM [1]: 25 to 50%
- IC50 [2]: < 100 nM
- IC50 [3]: 130 to 1000 nM

SMILES: C[C@H](NC(=O)c1cc(-c2cc(Cl)ccc2Oc2cc(F)c(S(=O)(=O)Nc3ncns3)cc2Cl)ccn1)C(=O)O [Compound 8, (S)-2-(4-(2-(4-(N-(1,2,4-thiadiazol-5-yl)sulfamoyl)-2-chloro-5-fluorophenoxy)-5-chlorophenyl)picolinamido)propanoic acid]
- inhibition at 1 hour, 6 µM [1]: 25 to 50%
- IC50 [2]: < 100 nM
- IC50 [3]: 130 to 1000 nM

SMILES: N#Cc1cc(S(=O)(=O)Nc2ncns2)ccc1Oc1ccc(Cl)cc1-c1ccnc(C(=O)NCCC(=O)O)c1 [Compound 9, 3-(4-(2-(4-(N-(1,2,4-thiadiazol-5-yl)sulfamoyl)-2-cyanophenoxy)-5-chlorophenyl)picolinamido)propanoic acid]
- inhibition at 1 hour, 6 µM [1]: 0 to 25%
- IC50 [3]: 130 to 1000 nM

SMILES: O=C(O)CCNC(=O)c1cc(-c2cc(Cl)ccc2Oc2cc(F)c(S(=O)(=O)Nc3ncns3)cc2F)ccn1 [Compound 10, 3-(4-(2-(4-(N-(1,2,4-thiadiazol-5-yl)sulfamoyl)-2,5-difluorophenoxy)-5-chlorophenyl)picolinamido)propanoic acid]
- inhibition at 1 hour, 6 µM [1]: 25 to 50%
- IC50 [3]: 130 to 1000 nM

- inhibition at 1 hour, 6 µM [1]: 0 to 25%
- IC50 [2]: < 100 nM
SMILES: O=C(O)CNCCCc1cc(Cl)ccc1Oc1cc(F)c(S(=O)(=O)Nc2cscn2)cc1Cl [Compound 11, 2-((3-(5-chloro-2-(2-chloro-5-fluoro-4-(N-(thiazol-4-yl)sulfamoyl)phenoxy)phenyl)propyl)amino)acetic acid]

SMILES: O=C(O)CNCCCc1cc(Cl)ccc1Oc1cc(F)c(S(=O)(=O)Nc2nccs2)cc1Cl [Compound 13, 2-((3-(5-chloro-2-(2-chloro-5-fluoro-4-(N-(thiazol-2-yl)sulfamoyl)phenoxy)phenyl)propyl)amino)acetic acid]
- inhibition at 1 hour, 6 µM [1]: 0 to 25%
- IC50 [2]: < 100 nM
- IC50 [3]: < 130 nM

SMILES: O=C(O)C1CCN(CCCc2cc(Cl)ccc2Oc2cc(F)c(S(=O)(=O)Nc3cscn3)cc2Cl)CC1 [Compound 14, 1-(3-(5-chloro-2-(2-chloro-5-fluoro-4-(N-(thiazol-4-yl)sulfamoyl)phenoxy)phenyl)propyl)piperidine-4-carboxylic acid]
- inhibition at 1 hour, 6 µM [1]: 0 to 25%
- IC50 [2]: 100 to 1000 nM
- IC50 [3]: 1000 to 20000 nM

SMILES: NC1(C(=O)O)CCN(CCCc2cc(Cl)ccc2Oc2cc(F)c(S(=O)(=O)Nc3cscn3)cc2Cl)CC1 [Compound 16, 4-amino-1-(3-(5-chloro-2-(2-chloro-5-fluoro-4-(N-(thiazol-4-yl)sulfamoyl)phenoxy)phenyl)propyl)piperidine-4-carboxylic acid]
- inhibition at 1 hour, 6 µM [1]: 25 to 50%
- IC50 [2]: < 100 nM
- IC50 [3]: < 130 nM

SMILES: NC(CCNCCCc1cc(Cl)ccc1Oc1cc(F)c(S(=O)(=O)Nc2cscn2)cc1Cl)C(=O)O (centres unmarked) [Compound 17, 2-amino-4-((3-(5-chloro-2-(2-chloro-5-fluoro-4-(N-(thiazol-4-yl)sulfamoyl)phenoxy)phenyl)propyl)amino)butanoic acid]
- inhibition at 1 hour, 6 µM [1]: 0 to 25%
- IC50 [2]: 100 to 1000 nM
- IC50 [3]: 1000 to 20000 nM

SMILES: O=C(O)CNCCCc1cc(Cl)ccc1Oc1cc(F)c(S(=O)(=O)Nc2nccs2)cc1F [Compound 18, 2-((3-(5-chloro-2-(2,5-difluoro-4-(N-(thiazol-2-yl)sulfamoyl)phenoxy)phenyl)propyl)amino)acetic acid]
- inhibition at 1 hour, 6 µM [1]: 0 to 25%
- IC50 [2]: 100 to 1000 nM
- IC50 [3]: 130 to 1000 nM

SMILES: O=C(O)C1CCCN(CCCc2cc(Cl)ccc2Oc2cc(F)c(S(=O)(=O)Nc3cscn3)cc2Cl)C1 (centres unmarked) [Compound 19, 1-(3-(5-chloro-2-(2-chloro-5-fluoro-4-(N-(thiazol-4-yl)sulfamoyl)phenoxy)phenyl)propyl)piperidine-3-carboxylic acid]
- inhibition at 1 hour, 6 µM [1]: 0 to 25%
- IC50 [2]: 100 to 1000 nM
- IC50 [3]: 1000 to 20000 nM

SMILES: O=C(O)CNCCCc1ccccc1Oc1cc(F)c(S(=O)(=O)Nc2ncns2)cc1Cl [Compound 20, 2-((3-(2-(4-(N-(1,2,4-thiadiazol-5-yl)sulfamoyl)-2-chloro-5-fluorophenoxy)phenyl)propyl)amino)acetic acid]
- inhibition at 1 hour, 6 µM [1]: 50 to 100%
- IC50 [2]: < 100 nM
- IC50 [3]: 130 to 1000 nM

SMILES: O=C(O)CNCCCc1cc(Cl)ccc1Oc1cc(F)c(S(=O)(=O)Nc2cscn2)cc1F [Compound 21, 2-((3-(5-chloro-2-(2,5-difluoro-4-(N-(thiazol-4-yl)sulfamoyl)phenoxy)phenyl)propyl)amino)acetic acid]
- inhibition at 1 hour, 6 µM [1]: 0 to 25%
- IC50 [2]: 100 to 1000 nM
- IC50 [3]: 1000 to 20000 nM

SMILES: O=C(O)CCNCCCc1cc(Cl)ccc1Oc1cc(F)c(S(=O)(=O)Nc2cscn2)cc1F [Compound 22, 3-((3-(5-chloro-2-(2,5-difluoro-4-(N-(thiazol-4-yl)sulfamoyl)phenoxy)phenyl)propyl)amino)propanoic acid]
- inhibition at 1 hour, 6 µM [1]: 0 to 25%
- IC50 [2]: 100 to 1000 nM
- IC50 [3]: 1000 to 20000 nM

SMILES: NC(=O)CCNCCCc1cc(Cl)ccc1Oc1cc(F)c(S(=O)(=O)Nc2cscn2)cc1Cl [Compound 26, 3-((3-(5-chloro-2-(2-chloro-5-fluoro-4-(N-(thiazol-4-yl)sulfamoyl)phenoxy)phenyl)propyl)amino)propanamide]
- IC50 [2]: < 100 nM
- IC50 [3]: < 130 nM

SMILES: O=C(O)CC1CCN(CCCc2cc(Cl)ccc2Oc2cc(F)c(S(=O)(=O)Nc3ncns3)cc2Cl)CC1 [Compound 28, 2-(1-(3-(2-(4-(N-(1,2,4-thiadiazol-5-yl)sulfamoyl)-2-chloro-5-fluorophenoxy)-5-chlorophenyl)propyl)piperidin-4-yl)acetic acid]
- IC50 [2]: < 100 nM
- IC50 [3]: 130 to 1000 nM

SMILES: CCOC(=O)N(CCCc1cc(Cl)ccc1Oc1cc(F)c(S(=O)(=O)Nc2nccs2)cc1Cl)CC(=O)O [Compound 34, 2-((3-(5-chloro-2-(2-chloro-5-fluoro-4-(N-(thiazol-2-yl)sulfamoyl)phenoxy)phenyl)propyl)(ethoxycarbonyl)amino)acetic acid]
- IC50 [2]: 100 to 500 nM
- IC50 [3]: 500 to 1000 nM

SMILES: CN(CCCc1cc(Cl)ccc1Oc1cc(F)c(S(=O)(=O)Nc2cscn2)cc1Cl)CC(=O)O [Compound 47, 2-((3-(5-chloro-2-(2-chloro-5-fluoro-4-(N-(thiazol-4-yl)sulfamoyl)phenoxy)phenyl)propyl)(methyl)amino)acetic acid]
- IC50 [2]: 1000 to 10000 nM
- IC50 [3]: 1000 to 20000 nM

SMILES: COC(=O)CN(C)CCCc1cc(Cl)ccc1Oc1cc(F)c(S(=O)(=O)Nc2cscn2)cc1Cl [Compound 52, methyl 2-((3-(5-chloro-2-(2-chloro-5-fluoro-4-(N-(thiazol-4-yl)sulfamoyl)phenoxy)phenyl)propyl)(methyl)amino)acetate]
- IC50 [2]: 100 to 500 nM
- IC50 [3]: 1000 to 20000 nM

— patent publication US20160221974A1, “SODIUM CHANNEL MODULATORS FOR THE TREATMENT OF PAIN AND DIABETES” (CHROMOCELL CORPORATION, priority 2013, published 2016)
